Data on twelve compounds can be found in patent US11110082B2, “Tyrosine kinase inhibitors” (Rigel Pharmaceuticals, Inc., priority 2016, dated 2021).

In this assay the target is T1, MerTK (Homo sapiens, UniProt Q12866).
T1 construct: Seed HUVECs (10K cells/well) in EBM-2 complete media; host or cells: HUVEC (primary human umbilical vein endothelial cells)
T1 sequence (Q12866 21-999): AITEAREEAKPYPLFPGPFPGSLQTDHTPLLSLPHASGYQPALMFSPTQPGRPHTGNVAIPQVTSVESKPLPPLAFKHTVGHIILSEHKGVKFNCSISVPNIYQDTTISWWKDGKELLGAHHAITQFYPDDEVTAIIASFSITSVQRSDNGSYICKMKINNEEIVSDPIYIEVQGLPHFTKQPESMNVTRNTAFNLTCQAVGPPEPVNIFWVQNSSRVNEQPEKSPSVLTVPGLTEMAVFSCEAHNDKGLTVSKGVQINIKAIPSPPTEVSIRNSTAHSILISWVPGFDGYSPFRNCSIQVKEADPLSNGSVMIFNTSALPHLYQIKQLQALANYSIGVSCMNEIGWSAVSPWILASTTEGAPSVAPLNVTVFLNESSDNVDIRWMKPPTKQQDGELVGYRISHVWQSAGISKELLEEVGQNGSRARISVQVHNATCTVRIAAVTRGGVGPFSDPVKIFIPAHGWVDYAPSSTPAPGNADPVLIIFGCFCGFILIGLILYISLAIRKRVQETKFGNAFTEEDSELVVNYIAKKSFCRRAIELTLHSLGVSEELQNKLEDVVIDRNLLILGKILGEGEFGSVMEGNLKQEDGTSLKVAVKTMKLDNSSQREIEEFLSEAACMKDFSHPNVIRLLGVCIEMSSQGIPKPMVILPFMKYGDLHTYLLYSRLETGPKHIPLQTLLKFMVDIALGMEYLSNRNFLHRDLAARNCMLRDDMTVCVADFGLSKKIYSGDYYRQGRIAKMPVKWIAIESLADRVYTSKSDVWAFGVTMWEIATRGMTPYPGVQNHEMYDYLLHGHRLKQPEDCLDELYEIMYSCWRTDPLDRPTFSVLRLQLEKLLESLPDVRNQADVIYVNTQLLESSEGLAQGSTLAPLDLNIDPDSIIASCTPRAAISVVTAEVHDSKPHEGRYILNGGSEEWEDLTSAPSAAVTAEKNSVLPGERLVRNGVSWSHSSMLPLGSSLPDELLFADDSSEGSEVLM
The assay can be described thus: PAKT HTRF-HUVEC assay (pAkt Ser473 HTRF after anti-human MerTK-XL stimulation). In kind it is cell-based. To be noted: HUVEC cells, 1 hour compound, stimulated with anti-human MerTK-XL 1 ug/mL for 10 minutes, read-out: inhibition of MerTK. The gist of the method:
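Akt Ser473 phosphorylation measured by HTRF in lysates of serum-starved HUVECs. Cells received compound for 1 h at 37° C before a 10-min challenge with antibody-cross-linked anti-MerTK (1 ug/mL final); EC50 derived by curve fit.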

pEC50: −log10 of the molar value.

Turning to `CN1CCN(Cc2ccc3c(c2)c(=O)n([C@H]2CC[C@H](N)CC2)c2nc(NCC4CC4)ncc32)CC1` [Compound 185, trans-5-(4-aminocyclohexyl)-3-((cyclopropylmethyl)amino)-8-((4-methylpiperazin-1-yl)methyl)pyrimido[4,5-c]isoquinolin-6(5H)-one], the pEC50 was 7.54.
Under `CCC[C@H](C)Nc1ncc2c3ccc(CN4CCN(c5ccncc5)CC4)cc3c(=O)n([C@H]3CC[C@H](O)CC3)c2n1` [Compound 219, trans-5-(4-Hydroxycyclohexyl)-3-(((S)-pentan-2-yl)amino)-8-((4-(pyridin-4-yl)piperazin-1-yl)methyl)pyrimido[4,5-c]isoquinolin-6(5H)-one] stands 7.74; under `CCCCNc1ncc2c3ccccc3c(=O)n(C3CC4(CC(O)C4)C3)c2n1` (stereo not drawn) [Compound 112, 3-(Butylamino)-5-(6-hydroxyspiro[3,3]heptan-2-yl)pyrimido[4,5-c]isoquinolin-6(5H)-one], 6.33.
For `CN1CCN(Cc2ccc3c(c2)c(=O)n([C@H]2CC[C@H](OC(N)=O)CC2)c2nc(NCC4CC4)ncc32)CC1` [Compound 181], the pEC50 was 6.53.
Under `O=c1c2cc(CN3CCOCC3)ccc2c2cnc(NCC3CC3)nc2n1[C@H]1CC[C@H](O)CC1` [Compound 155] stands 6.83; under `CCCCNc1ncc2c3ccc(CN4CCOCC4)cc3c(=O)n(CC3CCC(N)CC3)c2n1` (stereo not drawn) [Compound 9, 5-((4-Aminocyclohexyl)methyl)-3-(butylamino)-8-(morpholinomethyl)pyrimido [4,5-c]isoquinolin-6(5H)-one], 6.93; under `CC(C)N1CCN(Cc2ccc3c(c2)c(=O)n([C@H]2CC[C@](C)(O)CC2)c2nc(NCC4CC4)ncc32)CC1` [Compound 31, trans-3-((Cyclopropylmethyl)amino)-5-(4-hydroxy-4-methylcyclohexyl)-8-((4-isopropylpiperazin-1-yl)methyl)pyrimido[4,5-c]isoquinolin-6(5H)-one], 7.90.
The same measure for `CN1CC2(C1)CN(c1ccc3c(c1)c(=O)n([C@H]1CC[C@H](O)CC1)c1nc(NC4CC(F)(F)C4)ncc31)C2` [Compound 66, trans-3-((3,3-Difluorocyclobutyl)amino)-5-(4-hydroxycyclohexyl)-8-(6-methyl-2,6-diazaspiro[3.3]heptan-2-yl)pyrimido[4,5-c]isoquinolin-6(5H)-one]: 6.53.
The same measure for `O=c1c2cc(CN3CCN(C4COC4)CC3)ccc2c2cnc(NCC3CC3)nc2n1[C@H]1CC[C@H](O)CC1` [Compound 35, trans-3-((Cyclopropylmethyl)amino)-5-(4-hydroxycyclohexyl)-8-((4-(oxetan-3-yl)piperazin-1-yl)methyl)pyrimido[4,5-c]isoquinolin-6(5H)-one]: 7.33.
With `CCCCNc1ncc2c3ccc(N4C[C@@H](C)N(C)C[C@@H]4C)cc3c(=O)n(C3CCC(=O)CC3)c2n1` [Compound 79, 3-(Butylamino)-5-(4-oxocyclohexyl)-8-((2S,5R)-2,4,5-trimethylpiperazin-1-yl)pyrimido[4,5-c]isoquinolin-6(5H)-one], the pEC50 was 6.81.
Take `CCCCNc1ncc2c3ccc(CN4CCN(C)CC4)cc3c(=O)n([C@H]3CC[C@H](C(=O)NC4COC4)CC3)c2n1` [Compound 140, trans-4-(3-(Butylamino)-8-((4-methylpiperazin-1-yl)methyl)-6-oxopyrimido[4,5-c]isoquinolin-5(6H)-yl)-N-(oxetan-3-yl)cyclohexane-1-carboxamide]: the pEC50 is 6.83.
Under `CN1CCN(c2ccc3c(c2)c(=O)n([C@H]2CC[C@H](O)CC2)c2nc(NC4CC(F)(F)C4)ncc32)CC1` [Compound 85, trans-3-((3,3-Difluorocyclobutyl)amino)-5-(4-hydroxycyclohexyl)-8-(4-methylpiperazin-1-yl)pyrimido[4,5-c]isoquinolin-6(5H)-one] stands 6.66.
